Data reported in publication PMC3409094 (Journal of medicinal chemistry, 2012).

Key:
[1] = system: wild-type and drug-resistant HIV-1 strains; assay: Antiviral assays, all viruses tested summarised; format: cell-based
[2] = molecular target: three MDR protease variants (M1-M3); assay: HIV-1 protease inhibition assay; format: biochemical; details: against all three MDR protease variants (M1-M3)
[3] = against all the viruses tested (wild-type and MDR HIV-1)

Structure (SMILES)	EC50 [1, 3]	MDR Ki [2]	EC50 ([1]; Human immunodeficiency virus 1) [nM]
CC[C@H](C)CN(C[C@@H](O)[C@H](Cc1ccccc1)NC(=O)OC[C@@H]1CCC(=O)N1)S(=O)(=O)c1ccc(OC)cc1 [13j, ((S)-5-oxopyrrolidin-2-yl)methyl ((2S,3R)-3-hydroxy-4-(4-methoxy-N-((S)-2-methylbutyl)phenylsulfonamido)-1-phenylbutan-2-yl)carbamate]	modest antiviral potency	excellent potencies in the low nM ranges	
CC[C@H](C)CN(C[C@@H](O)[C@H](Cc1ccccc1)NC(=O)OC[C@@H]1CCC(=O)N1)S(=O)(=O)c1ccc2ncsc2c1 [14j, ((S)-5-oxopyrrolidin-2-yl)methyl ((2S,3R)-3-hydroxy-4-(N-((S)-2-methylbutyl)benzo[d]thiazole-6-sulfonamido)-1-phenylbutan-2-yl)carbamate]		excellent potencies in the low nM ranges	15.5 to 35.6
CC[C@H](C)CN(C[C@@H](O)[C@H](Cc1ccccc1)NC(=O)OCCN1CCNC1=O)S(=O)(=O)c1ccc2ncsc2c1 [14g, 2-(2-oxoimidazolidin-1-yl)ethyl ((2S,3R)-3-hydroxy-4-(N-((S)-2-methylbutyl)benzo[d]thiazole-6-sulfonamido)-1-phenylbutan-2-yl)carbamate]	modest antiviral potency		
CC[C@H](C)CN(C[C@@H](O)[C@H](Cc1ccccc1)NC(=O)OCCNC(=O)C(Cl)Cl)S(=O)(=O)c1ccc(OC)cc1 [13c, 2-(2,2-dichloroacetamido)ethyl (2S,3R)-3-hydroxy-4-(4-methoxy-N-((S)-2-methylbutyl)phenylsulfonamido)-1-phenylbutan-2-ylcarbamate]		excellent potencies in the low nM ranges	
CC[C@H](C)CN(C[C@@H](O)[C@H](Cc1ccccc1)NC(=O)OC[C@@H](C)C(=O)OC)S(=O)(=O)c1ccc(OC)cc1 [13f, (R)-methyl 3-((((2S,3R)-3-hydroxy-4-(4-methoxy-N-((S)-2-methylbutyl)phenylsulfonamido)-1-phenylbutan-2-yl)carbamoyl)oxy)-2-methylpropanoate]	modest antiviral potency	excellent potencies in the low nM ranges	
